In US20100272648A1, “Methods of Identifying Improved NMDA Receptor Antagonists” (priority 2008, published 2010):
Read-outs that look alike come from different tables or passages of the source.

Legend:
infarct volume [1] = conditions: cats and rats, highest dose tested; cited from earlier work
infarct volume [2] = conditions: cats, highest dose tested; cited from earlier work
infarct volume [3] = conditions: rats, after middle cerebral artery occlusion; cited from earlier work
[4] = target: rat NMDA-NR2B containing receptors (Rattus norvegicus, UniProt P35439+Q00960); assay: pH potency boost, Xenopus oocyte assay, rat receptor cDNA; type: cell-based; conditions: pH 6.9 vs 7.6, rat receptors
Chain of rat NMDA-NR2B containing receptors (Q00960 27-1482, other chains not shown): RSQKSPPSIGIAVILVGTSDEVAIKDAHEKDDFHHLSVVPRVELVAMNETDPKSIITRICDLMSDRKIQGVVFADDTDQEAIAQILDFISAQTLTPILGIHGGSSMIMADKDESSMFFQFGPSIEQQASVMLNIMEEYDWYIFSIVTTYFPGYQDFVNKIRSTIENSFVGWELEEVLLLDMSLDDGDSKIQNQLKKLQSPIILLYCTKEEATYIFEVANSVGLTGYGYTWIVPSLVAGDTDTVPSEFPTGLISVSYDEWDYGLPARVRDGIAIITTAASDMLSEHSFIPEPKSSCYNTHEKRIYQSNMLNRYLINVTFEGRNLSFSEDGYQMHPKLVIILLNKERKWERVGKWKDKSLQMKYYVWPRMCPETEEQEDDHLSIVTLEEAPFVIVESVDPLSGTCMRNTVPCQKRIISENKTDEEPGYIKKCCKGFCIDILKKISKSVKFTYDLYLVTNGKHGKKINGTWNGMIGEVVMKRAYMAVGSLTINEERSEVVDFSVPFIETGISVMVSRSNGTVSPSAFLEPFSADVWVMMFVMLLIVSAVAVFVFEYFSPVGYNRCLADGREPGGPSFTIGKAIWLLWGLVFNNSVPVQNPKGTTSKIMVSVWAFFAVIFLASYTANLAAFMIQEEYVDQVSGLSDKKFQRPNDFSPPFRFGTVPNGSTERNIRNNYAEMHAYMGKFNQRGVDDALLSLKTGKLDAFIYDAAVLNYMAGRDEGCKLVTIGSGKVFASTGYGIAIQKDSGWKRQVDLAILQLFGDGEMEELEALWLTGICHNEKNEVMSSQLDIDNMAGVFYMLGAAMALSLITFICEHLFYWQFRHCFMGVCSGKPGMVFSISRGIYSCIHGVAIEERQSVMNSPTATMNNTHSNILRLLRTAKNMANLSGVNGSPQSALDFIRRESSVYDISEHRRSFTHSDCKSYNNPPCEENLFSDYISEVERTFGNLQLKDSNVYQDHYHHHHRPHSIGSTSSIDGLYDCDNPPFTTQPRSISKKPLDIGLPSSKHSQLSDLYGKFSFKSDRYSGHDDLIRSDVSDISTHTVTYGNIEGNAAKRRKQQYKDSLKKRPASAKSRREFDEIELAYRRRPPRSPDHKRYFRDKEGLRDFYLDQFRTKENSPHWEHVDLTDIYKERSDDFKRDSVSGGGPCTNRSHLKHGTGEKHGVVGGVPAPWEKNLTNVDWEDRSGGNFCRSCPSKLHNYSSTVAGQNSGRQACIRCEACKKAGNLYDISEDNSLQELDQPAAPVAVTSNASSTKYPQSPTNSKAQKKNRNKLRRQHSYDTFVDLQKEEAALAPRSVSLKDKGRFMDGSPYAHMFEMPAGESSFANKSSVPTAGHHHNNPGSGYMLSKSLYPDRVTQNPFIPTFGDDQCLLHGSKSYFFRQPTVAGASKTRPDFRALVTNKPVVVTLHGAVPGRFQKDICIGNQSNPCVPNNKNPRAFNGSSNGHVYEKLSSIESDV
Description: (§1) In vitro transcribed cRNA was purified using standard methods.
(§2) Preparation of pH-dependent NMDA receptor antagonists for testing.
(§3) Voltage-clamp recordings from Xenopus oocytes.
(§4) Determination of a pH dependent potency boost in antagonism, defined as the […].

[5] = target: human NMDA-NR2B containing receptors (Homo sapiens, UniProt Q05586+Q13224); assay: pH potency boost, Xenopus oocyte assay, human receptor cDNA; type: cell-based; conditions: for HUMAN Boost: pH potency boost, pH 6.9 vs 7.6, human receptors; for Absolute Boost Difference: rat versus human pH potency boost
Chain of human NMDA-NR2B containing receptors (Q13224 27-1484, other chains not shown): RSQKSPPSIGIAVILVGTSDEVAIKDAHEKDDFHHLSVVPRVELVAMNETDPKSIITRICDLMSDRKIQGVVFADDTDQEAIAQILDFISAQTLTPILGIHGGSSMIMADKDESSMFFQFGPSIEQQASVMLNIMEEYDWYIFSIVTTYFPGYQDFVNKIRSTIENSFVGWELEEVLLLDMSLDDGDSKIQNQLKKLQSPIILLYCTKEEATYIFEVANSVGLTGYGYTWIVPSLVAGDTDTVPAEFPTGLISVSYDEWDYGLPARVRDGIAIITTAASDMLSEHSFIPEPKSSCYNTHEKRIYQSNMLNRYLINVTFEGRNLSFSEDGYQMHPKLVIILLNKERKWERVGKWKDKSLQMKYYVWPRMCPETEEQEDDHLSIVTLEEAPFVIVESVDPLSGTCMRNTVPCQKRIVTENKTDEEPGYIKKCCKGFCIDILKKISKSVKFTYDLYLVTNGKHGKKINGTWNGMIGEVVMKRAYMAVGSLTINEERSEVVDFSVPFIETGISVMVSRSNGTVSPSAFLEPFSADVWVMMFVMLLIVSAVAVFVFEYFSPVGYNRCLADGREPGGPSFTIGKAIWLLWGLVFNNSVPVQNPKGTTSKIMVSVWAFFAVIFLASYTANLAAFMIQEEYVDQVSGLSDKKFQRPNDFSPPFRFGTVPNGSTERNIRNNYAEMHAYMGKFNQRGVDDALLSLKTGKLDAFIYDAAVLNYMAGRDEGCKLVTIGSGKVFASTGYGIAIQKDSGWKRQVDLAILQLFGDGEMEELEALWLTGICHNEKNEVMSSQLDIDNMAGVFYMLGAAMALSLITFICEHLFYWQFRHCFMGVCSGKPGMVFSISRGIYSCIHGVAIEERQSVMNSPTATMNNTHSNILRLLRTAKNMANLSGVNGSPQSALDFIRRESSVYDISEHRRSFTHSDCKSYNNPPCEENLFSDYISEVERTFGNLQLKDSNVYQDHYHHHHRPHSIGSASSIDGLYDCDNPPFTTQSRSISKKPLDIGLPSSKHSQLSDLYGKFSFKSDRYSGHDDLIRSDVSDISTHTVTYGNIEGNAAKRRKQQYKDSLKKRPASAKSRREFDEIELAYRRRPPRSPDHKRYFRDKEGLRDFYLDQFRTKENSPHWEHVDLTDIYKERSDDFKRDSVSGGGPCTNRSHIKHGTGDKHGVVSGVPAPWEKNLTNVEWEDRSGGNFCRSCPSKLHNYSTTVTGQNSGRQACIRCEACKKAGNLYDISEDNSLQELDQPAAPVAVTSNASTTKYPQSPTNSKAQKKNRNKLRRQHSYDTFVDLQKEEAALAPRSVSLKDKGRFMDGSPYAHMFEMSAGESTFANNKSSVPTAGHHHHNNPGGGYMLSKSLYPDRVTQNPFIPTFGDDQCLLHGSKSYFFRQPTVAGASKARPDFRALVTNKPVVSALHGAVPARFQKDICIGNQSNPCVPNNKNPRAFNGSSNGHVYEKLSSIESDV
Description: as §1, §2, §3, §4

[6] = Locomotor activity of rats (light beam breaks); type: in vivo, Sprague-Dawley rats; conditions: IP, varying doses (3-300 mg/kg, compound-specific), monitored 2 hours after injection
Protocol: Locomotor activity was monitored after injection for 2 hours.

NR1/NR2A receptors = NR1/NR2A receptors (Rattus norvegicus, UniProt P35439+Q00959); assay: In vitro potency boost pH 6.9 vs 7.6 (NR1/NR2A, oocytes) versus infarct volume (FIG. 4); conditions: potency boost pH 6.9 vs 7.6 versus infarct volume
Chain of NR1/NR2A receptors (Q00959 23-1464, other chains not shown): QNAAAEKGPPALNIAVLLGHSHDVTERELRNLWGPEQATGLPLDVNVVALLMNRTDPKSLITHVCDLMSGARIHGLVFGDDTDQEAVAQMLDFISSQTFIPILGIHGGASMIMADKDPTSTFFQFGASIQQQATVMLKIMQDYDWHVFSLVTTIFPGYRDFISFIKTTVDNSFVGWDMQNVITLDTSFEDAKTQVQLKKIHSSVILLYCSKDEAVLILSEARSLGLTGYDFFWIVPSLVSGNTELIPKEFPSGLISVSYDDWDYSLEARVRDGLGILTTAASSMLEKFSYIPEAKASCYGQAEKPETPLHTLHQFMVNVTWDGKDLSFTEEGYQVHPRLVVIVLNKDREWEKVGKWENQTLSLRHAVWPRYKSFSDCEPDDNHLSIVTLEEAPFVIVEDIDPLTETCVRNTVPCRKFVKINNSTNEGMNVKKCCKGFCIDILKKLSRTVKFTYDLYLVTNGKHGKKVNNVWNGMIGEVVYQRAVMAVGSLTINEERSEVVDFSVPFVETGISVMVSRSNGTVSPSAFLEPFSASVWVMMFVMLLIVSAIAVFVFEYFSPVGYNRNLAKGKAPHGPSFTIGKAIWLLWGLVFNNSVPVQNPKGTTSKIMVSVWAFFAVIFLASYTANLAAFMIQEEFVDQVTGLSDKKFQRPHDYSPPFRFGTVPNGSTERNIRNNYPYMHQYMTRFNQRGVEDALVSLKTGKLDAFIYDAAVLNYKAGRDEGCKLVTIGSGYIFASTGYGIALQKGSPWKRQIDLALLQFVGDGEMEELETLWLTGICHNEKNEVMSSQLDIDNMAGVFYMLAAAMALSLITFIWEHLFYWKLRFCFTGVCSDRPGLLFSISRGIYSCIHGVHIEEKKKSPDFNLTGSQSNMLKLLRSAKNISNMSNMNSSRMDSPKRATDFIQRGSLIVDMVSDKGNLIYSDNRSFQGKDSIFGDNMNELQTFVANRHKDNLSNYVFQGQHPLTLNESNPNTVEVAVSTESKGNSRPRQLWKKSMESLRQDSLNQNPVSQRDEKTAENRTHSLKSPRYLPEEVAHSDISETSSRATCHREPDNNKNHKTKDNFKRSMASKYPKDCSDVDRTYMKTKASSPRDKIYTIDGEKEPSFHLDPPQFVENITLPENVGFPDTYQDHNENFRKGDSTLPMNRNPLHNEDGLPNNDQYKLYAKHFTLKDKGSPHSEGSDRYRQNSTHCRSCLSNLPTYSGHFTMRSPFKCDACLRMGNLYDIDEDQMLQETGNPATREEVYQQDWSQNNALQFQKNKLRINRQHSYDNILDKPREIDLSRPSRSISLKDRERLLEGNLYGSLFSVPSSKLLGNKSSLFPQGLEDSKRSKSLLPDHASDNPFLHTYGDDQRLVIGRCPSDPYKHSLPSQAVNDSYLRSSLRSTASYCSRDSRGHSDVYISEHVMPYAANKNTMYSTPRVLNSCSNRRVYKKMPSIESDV
Protocol: Expression of NMDA receptors in Xenopus oocytes. cRNA was synthesized from linearized template cDNA for NMDA receptor subunits (NR1-1a, NR2B, NR2A) according to manufacturer specifications (Ambion:). cDNAs used corresponded to GenBank numbers U08261 and U11418 (NR1-1a), AF001423 and CD13211 (NR2A), U11419 (NR2B). Briefly, cDNA was linearized with an appropriate restriction enzyme downstream of the coding region, purified, and incubated with RNA polymerase and appropriate concentrations of ribonucleotides. In vitro transcribed cRNA was purified using standard methods. Quality of synthesized cRNA was assessed by gel electrophoresis, and quantity was estimated by spectroscopy and gel electrophoresis. Stage V and VI oocytes were surgically removed from the ovaries of large, well-fed and healthy Xenopus laevis anesthetized with 3-amino-benzoic acid ethyl ester (1 gm/l). Clusters of oocytes were incubated with 292 Uml Worthington (Freehold, N.J.) type IV collagenase or 1.3 mg/ml collagenase (Life Technologies, Gaithersburg, Md.; 17018-029) for 2 hr in Ca2+-free solution comprised of (in mM) 115 NaCl, 2.5 KCl, and 10 HEPES, pH 7.5, with slow agitation to remove the follicular cell layer. […]

dyskinesias = conditions: add-on therapy with L-DOPA, patients; cited from earlier work

Compound | RAT Boost [4] | HUMAN Boost [5] | Absolute Boost Difference [5] | other results
OC(CN1CCC(Cc2ccc(F)cc2)CC1)c1ccc(Cl)cc1 (stereo not drawn) [SL 82.0715] |  |  |  | decrease in infarct volume (infarct volume [1]): 36-48%
CC(C(O)c1ccc(O)cc1)N1CCC(Cc2ccccc2)CC1 (stereo not drawn) [Ifenprodil] |  |  |  | decrease in infarct volume (infarct volume [2]): 42%; decrease in infarct volume (infarct volume [3]): 22%
CS(=O)(=O)Nc1ccc(OCC(O)CN2CCN(c3ccc(F)c(F)c3)CC2)cc1 (stereo not drawn) [Compound 93-108] | 3.4 | 17.7 | 14.3 | 
CS(=O)(=O)Nc1ccc(OCC(O)CN(CCc2ccc(Cl)c(Cl)c2)Cc2ccccc2)cc1 (stereo not drawn) [Compound 93-30] | 7.4 | 21.0 | 13.6 | 
CCCCN(CCc1ccc(Cl)c(Cl)c1)CC(O)COc1ccc(NS(C)(=O)=O)cc1 (stereo not drawn) [Compound 93-88] | 6.3 | 22.1 | 15.8 | 
(+)MK801 |  |  |  | effects on locomotor activity [6]: stereotypical biphasic effects
CS(=O)(=O)Nc1ccc(OCC2CN(CCc3cc(Cl)c(Cl)s3)C(c3c(F)c(F)c(F)c(F)c3F)O2)cc1 (stereo not drawn) [Compound 93-176] | 34.5 | 29.9 | 4.6 | 
CNC1(c2ccccc2Cl)CCCCC1=O (stereo not drawn) [ketamine] |  |  |  | mean within shaded area (criteria for superior drug performance), NR1/NR2A (NR1/NR2A receptors): fall within the shaded area
NC12CC3CC(CC(C3)C1)C2 [Amantadine] |  |  |  | reduction of severity of dyskinesias (dyskinesias): 60%
C/C=C/CN(CCc1ccc(Cl)c(Cl)c1)CC(O)COc1ccc(NS(C)(=O)=O)cc1 (stereo not drawn) [Compound 93-128] | 4.1 | 18.0 | 13.9 | 
